Experimental data from ChEMBL document CHEMBL1139379, “Design, structure-activity relationships and in vivo characterization of 4-amino-3-benzimidazol-2-ylhydroquinolin-2-ones: a novel class of receptor tyrosine kinase inhibitors” (J Med Chem, 2009).
Values belong to the compound of their own block, whether it stands above or below them.

Experiments:
[1] = target: Fibroblast growth factor receptor 1 (Homo sapiens, UniProt P11362); test: Inhibition of human recombinant FGFR1
[2] = target: Platelet-derived growth factor receptor beta (Homo sapiens, UniProt P09619); test: Inhibition of human recombinant PDGFRbeta
[3] = Inhibition of VEGF-mediated proliferation of HMVEC after 72 hrs; assay type: functional, cell-based; conditions: Homo sapiens
[4] = target: Vascular endothelial growth factor receptor 2 (Homo sapiens, UniProt P35968)
[5] = Oral bioavailability in mouse at 20 mg/kg; assay type: ADME, organism-based; conditions: in vivo
[6] = Cmax in mouse at 20 mg/kg, po; assay type: ADME, organism-based; parameters: dose 20 mg/kg, route oral; conditions: in vivo
[7] = AUC in mouse at 20 mg/kg, po; assay type: ADME, organism-based; parameters: dose 20 mg/kg, route oral; conditions: plasma
[8] = Clearance in mouse at 5 mg/kg, iv; assay type: ADME, organism-based; parameters: dose 5 mg/kg, route intravenous; conditions: in vivo
[9] = Volume of distribution at steady state in mouse at 5 mg/kg, iv; assay type: ADME, organism-based; parameters: dose 5 mg/kg, route intravenous; conditions: in vivo, read-out: Vdss
[10] = Half life in mouse at 5 mg/kg, iv; assay type: ADME, organism-based; parameters: dose 5 mg/kg, route intravenous; conditions: in vivo
[11] = Oral bioavailability in rat at 20 mg/kg; assay type: ADME, organism-based; conditions: in vivo
[12] = Cmax in rat at 20 mg/kg, po; assay type: ADME, organism-based; parameters: dose 20 mg/kg, route oral; conditions: in vivo
[13] = AUC in rat at 20 mg/kg, po; assay type: ADME, organism-based; parameters: dose 20 mg/kg, route oral; conditions: plasma
[14] = Clearance in rat at 5 mg/kg, iv; assay type: ADME, organism-based; parameters: dose 5 mg/kg, route intravenous; conditions: in vivo
[15] = Volume of distribution at steady state in rat at 5 mg/kg, iv; assay type: ADME, organism-based; parameters: dose 5 mg/kg, route intravenous; conditions: in vivo, read-out: Vdss
[16] = Half life in rat at 5 mg/kg, iv; assay type: ADME, organism-based; parameters: dose 5 mg/kg, route intravenous; conditions: in vivo
Mus musculus [17] = species on record: Mus musculus; test: Antiangiogenic activity in BDF1 mouse Matrigel model assessed as inhibition of bFGF-mediated angiogenesis; assay type: functional
Mus musculus [18] = test: Antiangiogenic activity in BDF1 mouse Matrigel model assessed as inhibition of bFGF-mediated angiogenesis at 3 mg/kg, po for 8 days by colorimetric assay; assay type: functional; parameters: scale not given: the % may be the effect or the level left
[19] = Antitumor activity against VEGFR expressing human KM12L4A cells xenografted nude mouse assessed as tumor growth inhibition at 10 mg/kg/day, po; assay type: functional; conditions: read-out: TGI
[20] = Antitumor activity against PDGFRbeta expressing human KM12L4A cells xenografted nude mouse assessed as tumor growth inhibition at 30 mg/kg/day, po; assay type: functional; conditions: read-out: TGI
[21] = Antitumor activity against PDGFRbeta expressing human KM12L4A cells xenografted nude mouse assessed as tumor growth inhibition at 100 mg/kg/day, po; assay type: functional; conditions: read-out: TGI
DU-145 [22] = test: Antitumor activity against VEGFR expressing human DU145 cells xenografted nude mouse assessed as tumor growth inhibition at 10 mg/kg/day, po; assay type: functional; conditions: read-out: TGI
DU-145 [23] = test: Antitumor activity against PDGFRbeta expressing human DU145 cells xenografted nude mouse assessed as tumor growth inhibition at 30 mg/kg/day, po; assay type: functional; conditions: read-out: TGI
DU-145 [24] = test: Antitumor activity against FGFR expressing human DU145 cells xenografted nude mouse assessed as tumor growth inhibition at 100 mg/kg/day, po; assay type: functional; conditions: read-out: TGI
MV4-11 [25] = test: Antitumor activity against FLT3 ITD expressing human MV4-11 cells xenografted SCID-NOD mouse assessed as tumor growth inhibition at 1 mg/kg/day, po; assay type: functional; conditions: read-out: TGI
MV4-11 [26] = test: Antitumor activity against VEGFR expressing human MV4-11 cells xenografted SCID-NOD mouse assessed as tumor growth inhibition at 5 mg/kg/day, po; assay type: functional; conditions: read-out: TGI
MV4-11 [27] = test: Antitumor activity against cKit expressing human MV4-11 cells xenografted SCID-NOD mouse assessed as tumor growth inhibition at 10 mg/kg/day, po; assay type: functional; conditions: read-out: TGI
MV4-11 [28] = test: Antitumor activity against PDGFRbeta expressing human MV4-11 cells xenografted SCID-NOD mouse assessed as tumor growth inhibition at 30 mg/kg/day, po; assay type: functional; conditions: read-out: TGI
[29] = Antitumor activity against human KM12L4A cells xenografted nude mouse; assay type: functional
DU-145 [30] = test: Antitumor activity against human DU145 cells xenografted nude mouse; assay type: functional
MV4-11 [31] = test: Antitumor activity against human MV4-11 cells xenografted SCID-NOD mouse; assay type: functional

Vascular endothelial growth factor receptor 2, sequence (P35968 whole entry): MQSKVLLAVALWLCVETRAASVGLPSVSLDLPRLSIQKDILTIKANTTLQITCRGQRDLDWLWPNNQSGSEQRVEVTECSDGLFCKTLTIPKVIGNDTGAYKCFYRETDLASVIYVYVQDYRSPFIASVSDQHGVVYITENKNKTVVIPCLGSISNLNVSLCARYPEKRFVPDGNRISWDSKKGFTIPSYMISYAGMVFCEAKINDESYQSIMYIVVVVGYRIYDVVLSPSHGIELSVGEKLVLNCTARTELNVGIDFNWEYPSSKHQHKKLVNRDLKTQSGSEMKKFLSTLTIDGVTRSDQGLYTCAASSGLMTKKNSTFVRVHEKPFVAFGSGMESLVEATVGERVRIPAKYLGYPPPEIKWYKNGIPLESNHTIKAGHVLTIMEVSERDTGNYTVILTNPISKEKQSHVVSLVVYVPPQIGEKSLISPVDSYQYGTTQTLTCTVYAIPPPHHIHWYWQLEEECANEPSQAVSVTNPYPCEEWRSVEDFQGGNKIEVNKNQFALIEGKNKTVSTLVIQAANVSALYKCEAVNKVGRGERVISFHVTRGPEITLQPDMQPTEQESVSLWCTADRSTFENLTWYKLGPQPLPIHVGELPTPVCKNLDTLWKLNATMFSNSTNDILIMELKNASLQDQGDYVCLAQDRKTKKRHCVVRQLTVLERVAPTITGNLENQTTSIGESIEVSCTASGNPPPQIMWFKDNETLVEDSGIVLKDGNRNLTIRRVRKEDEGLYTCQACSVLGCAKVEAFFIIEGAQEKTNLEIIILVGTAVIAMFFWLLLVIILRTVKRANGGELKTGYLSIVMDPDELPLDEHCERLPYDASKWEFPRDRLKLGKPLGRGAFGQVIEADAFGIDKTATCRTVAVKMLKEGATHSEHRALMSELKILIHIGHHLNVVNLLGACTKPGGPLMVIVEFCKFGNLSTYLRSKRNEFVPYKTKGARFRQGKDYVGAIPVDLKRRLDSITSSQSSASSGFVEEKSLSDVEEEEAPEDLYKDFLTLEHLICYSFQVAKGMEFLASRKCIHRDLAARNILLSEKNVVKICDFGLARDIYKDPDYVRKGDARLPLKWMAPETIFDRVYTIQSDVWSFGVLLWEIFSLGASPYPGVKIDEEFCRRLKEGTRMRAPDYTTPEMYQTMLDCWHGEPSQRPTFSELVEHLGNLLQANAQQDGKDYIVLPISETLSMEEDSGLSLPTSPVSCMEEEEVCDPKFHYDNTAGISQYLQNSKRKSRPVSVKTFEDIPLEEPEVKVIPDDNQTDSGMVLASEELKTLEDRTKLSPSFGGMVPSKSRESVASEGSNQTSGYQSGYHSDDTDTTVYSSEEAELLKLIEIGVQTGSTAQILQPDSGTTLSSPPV
Fibroblast growth factor receptor 1, sequence (P11362 whole entry): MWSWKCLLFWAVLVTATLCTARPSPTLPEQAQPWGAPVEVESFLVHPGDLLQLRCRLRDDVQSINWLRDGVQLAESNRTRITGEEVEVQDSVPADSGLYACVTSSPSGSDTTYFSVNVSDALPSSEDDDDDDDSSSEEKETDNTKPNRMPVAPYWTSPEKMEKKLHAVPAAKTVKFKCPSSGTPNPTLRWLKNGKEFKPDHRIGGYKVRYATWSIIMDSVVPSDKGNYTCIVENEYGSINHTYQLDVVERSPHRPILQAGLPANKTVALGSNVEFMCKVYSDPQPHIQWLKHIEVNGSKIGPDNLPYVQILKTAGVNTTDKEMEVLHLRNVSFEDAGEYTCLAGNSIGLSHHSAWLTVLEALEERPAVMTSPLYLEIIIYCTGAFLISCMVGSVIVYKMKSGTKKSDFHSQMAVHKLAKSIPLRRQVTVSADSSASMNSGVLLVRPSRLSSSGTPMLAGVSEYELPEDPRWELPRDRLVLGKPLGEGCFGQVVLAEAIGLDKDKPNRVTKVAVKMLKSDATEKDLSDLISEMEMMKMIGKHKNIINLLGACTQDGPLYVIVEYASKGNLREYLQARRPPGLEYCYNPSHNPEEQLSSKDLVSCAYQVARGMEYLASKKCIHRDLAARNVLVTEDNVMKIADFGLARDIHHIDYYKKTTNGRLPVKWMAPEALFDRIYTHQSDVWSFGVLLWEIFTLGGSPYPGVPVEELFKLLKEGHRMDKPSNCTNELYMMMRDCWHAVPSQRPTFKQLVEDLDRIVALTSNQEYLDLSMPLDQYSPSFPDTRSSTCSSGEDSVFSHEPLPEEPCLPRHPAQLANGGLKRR
Platelet-derived growth factor receptor beta, sequence (P09619 whole entry): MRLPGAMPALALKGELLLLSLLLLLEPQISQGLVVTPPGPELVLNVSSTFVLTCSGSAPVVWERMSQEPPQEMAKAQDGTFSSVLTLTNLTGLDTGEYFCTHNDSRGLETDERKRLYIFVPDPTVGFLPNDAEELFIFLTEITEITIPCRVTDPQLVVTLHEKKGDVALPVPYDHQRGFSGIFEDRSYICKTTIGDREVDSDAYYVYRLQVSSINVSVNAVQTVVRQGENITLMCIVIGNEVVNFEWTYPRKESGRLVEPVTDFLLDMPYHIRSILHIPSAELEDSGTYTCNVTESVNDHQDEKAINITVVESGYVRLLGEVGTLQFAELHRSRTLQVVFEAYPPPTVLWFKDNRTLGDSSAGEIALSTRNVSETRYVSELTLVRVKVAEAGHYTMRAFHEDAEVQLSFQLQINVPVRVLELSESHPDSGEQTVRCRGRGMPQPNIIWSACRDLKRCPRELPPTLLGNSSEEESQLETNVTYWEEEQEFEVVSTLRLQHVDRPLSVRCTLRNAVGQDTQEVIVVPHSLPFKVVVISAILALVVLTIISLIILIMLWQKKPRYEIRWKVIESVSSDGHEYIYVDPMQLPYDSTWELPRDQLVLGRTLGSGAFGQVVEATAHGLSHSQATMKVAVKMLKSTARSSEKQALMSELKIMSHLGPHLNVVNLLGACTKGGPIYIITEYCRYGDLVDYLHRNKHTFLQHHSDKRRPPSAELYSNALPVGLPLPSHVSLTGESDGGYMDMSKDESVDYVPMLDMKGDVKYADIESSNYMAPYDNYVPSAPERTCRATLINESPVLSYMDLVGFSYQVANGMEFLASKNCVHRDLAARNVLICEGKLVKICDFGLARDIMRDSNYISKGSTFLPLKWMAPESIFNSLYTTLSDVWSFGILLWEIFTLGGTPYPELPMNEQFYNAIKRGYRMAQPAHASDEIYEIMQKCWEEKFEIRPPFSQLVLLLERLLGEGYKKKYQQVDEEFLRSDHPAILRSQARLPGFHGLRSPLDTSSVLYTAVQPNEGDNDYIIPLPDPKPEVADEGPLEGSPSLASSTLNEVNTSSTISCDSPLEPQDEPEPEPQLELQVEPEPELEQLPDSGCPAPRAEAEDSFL

IC50 [1]: 15 nM
IC50 [2]: 2 nM
IC50 [4]: 53 nM
SMILES: CNc1cccc2[nH]c(=O)c(-c3nc4ccc(N5CCN(C)CC5)cc4[nH]3)c(N)c12
EC50 [3]: 17 nM

IC50 [1]: 40 nM
IC50 [2]: 1 nM
IC50 [4]: 78 nM
SMILES: CN1CCN(c2ccc3nc(-c4c(N)c5cc(F)ccc5[nH]c4=O)[nH]c3c2)CC1
EC50 [3]: 10 nM

IC50 [1]: 7 nM
IC50 [2]: 7 nM
IC50 [4]: 19 nM
SMILES: CN1CCN(c2ccc3nc(-c4c(N)c5cc(N)ccc5[nH]c4=O)[nH]c3c2)CC1
EC50 [3]: 17 nM

IC50 [1]: 3 nM
IC50 [2]: 0.4 nM
IC50 [4]: 14 nM
SMILES: CN1CCN(c2ccc3nc(-c4c(N)c5ccc(F)cc5[nH]c4=O)[nH]c3c2)CC1
EC50 [3]: 34 nM

IC50 [1]: 80 nM
IC50 [2]: 30 nM
IC50 [4]: 220 nM
SMILES: Cc1ccc2nc(-c3c(N)c4ccccc4[nH]c3=O)[nH]c2c1
EC50 [3]: 64 nM

IC50 [1]: 70 nM
IC50 [2]: 12 nM
IC50 [4]: 210 nM
SMILES: Cc1cc2nc(-c3c(N)c4ccccc4[nH]c3=O)[nH]c2cc1C
EC50 [3]: 150 nM

SMILES: CN1CCN(C(=O)c2ccc3[nH]c(-c4c(N)c5ccccc5[nH]c4=O)nc3c2)CC1
IC50 [1]: 10 nM
IC50 [2]: 0.9 nM
EC50 [3]: 45 nM
IC50 [4]: 26 nM

IC50 [1]: 30 nM
IC50 [2]: 5 nM
IC50 [4]: 130 nM
SMILES: CN1CCN(c2ccc3[nH]c(-c4c(N)c5c(F)cc(F)cc5[nH]c4=O)nc3c2)CC1
EC50 [3]: 80 nM

IC50 [1]: 1800 nM
IC50 [2]: 30 nM
IC50 [4]: 5300 nM
SMILES: CN1CCN(c2ccc3nc(-c4c(N)c5cc(F)c(N(C)C)cc5[nH]c4=O)[nH]c3c2)CC1
EC50 [3]: 3300 nM

SMILES: CN1CCN(c2cccc3[nH]c(=O)c(-c4nc5ccccc5[nH]4)c(N)c23)CC1
IC50 [1]: 1 nM
IC50 [2]: 0.3 nM
EC50 [3]: 340 nM
IC50 [4]: 17 nM

IC50 [1]: 120 nM
IC50 [2]: 30 nM
IC50 [4]: 220 nM
SMILES: CNc1c(-c2nc3ccccc3[nH]2)c(=O)[nH]c2ccccc12
EC50 [3]: 280 nM

IC50 [1]: 110 nM
IC50 [2]: 3 nM
IC50 [4]: 190 nM
SMILES: CN1CCN(c2ccc3[nH]c(-c4c(N)c5cc(F)c(F)cc5[nH]c4=O)nc3c2)CC1
EC50 [3]: 480 nM

SMILES: CN1CCCN(c2ccc3[nH]c(-c4c(N)c5ccccc5[nH]c4=O)nc3c2)CC1
IC50 [1]: 20 nM
IC50 [2]: 5 nM
EC50 [3]: 25 nM
IC50 [4]: 66 nM

IC50 [1]: > 25000 nM
IC50 [2]: 19000 nM
IC50 [4]: 5800 nM
SMILES: Cn1c(=O)c(-c2nc3ccccc3[nH]2)c(O)c2ccccc21
EC50 [3]: 4600 nM

IC50 [1]: 24 nM
IC50 [2]: 8 nM
IC50 [4]: 43 nM
SMILES: CN1CCN(c2ccc3[nH]c(-c4c(N)c5cc(Cl)ccc5[nH]c4=O)nc3c2)CC1
EC50 [3]: 39 nM

SMILES: O=c1[nH]c2ccccc2c(NCC2CCNCC2)c1-c1nc2ccccc2[nH]1
IC50 [1]: 550 nM
IC50 [2]: 0.9 nM
EC50 [3]: 100 nM
IC50 [4]: 940 nM

SMILES: CN1CCN(c2ccc3nc(-c4c(N)c5cc(C(=O)NCc6ccccc6)ccc5[nH]c4=O)[nH]c3c2)CC1
IC50 [1]: 10 nM
IC50 [2]: 0.1 nM
EC50 [3]: 120 nM
IC50 [4]: 50 nM

SMILES: Nc1c(-c2nc3ccc(OCCN4CCOCC4)cc3[nH]2)c(=O)[nH]c2ccccc12
IC50 [1]: 20 nM
IC50 [2]: 5 nM
EC50 [3]: 37 nM
IC50 [4]: 66 nM

IC50 [1]: 190 nM
IC50 [2]: 14 nM
IC50 [4]: 560 nM
SMILES: CN1CCN(c2ccc3[nH]c(-c4c(N)c5cccc(F)c5[nH]c4=O)nc3c2)CC1
EC50 [3]: 420 nM

bioavailability [5]: 77%
Cmax [6]: 670 ng/mL
AUC [7]: 6000 ng·h/mL
clearance [8]: 42 mL/min/kg
Vd [9]: 12 L/kg
half-life [10]: 162 min
bioavailability [11]: 73%
Cmax [12]: 480 ng/mL
AUC [13]: 5670 ng·h/mL
clearance [14]: 43 mL/min/kg
Vd [15]: 13 L/kg
half-life [16]: 210 min
SMILES: CN1CCN(c2ccc3nc(-c4c(N)c5c(F)cccc5[nH]c4=O)[nH]c3c2)CC1 [DOVITINIB]
EC50 [3]: 13 nM
ED50 (Mus musculus [17]): 3 mg/kg
Activity (Mus musculus [18]): 54%
inhibition in vivo at 10 mg/kg/day [19]: 44%
inhibition in vivo at 30 mg/kg/day [20]: 55%
inhibition in vivo at 100 mg/kg/day [21]: 95%
inhibition in vivo at 10 mg/kg/day (DU-145 [22]): 39%
inhibition in vivo at 30 mg/kg/day (DU-145 [23]): 70%
inhibition in vivo at 100 mg/kg/day (DU-145 [24]): 86%
inhibition in vivo at 1 mg/kg/day (MV4-11 [25]): 23%
inhibition in vivo at 5 mg/kg/day (MV4-11 [26]): 65%
inhibition in vivo at 10 mg/kg/day (MV4-11 [27]): 92%
inhibition in vivo at 30 mg/kg/day (MV4-11 [28]): 96%
ED50 [29]: 17 mg/kg
minimal effective dose ([29]; read-out: MED): 10 mg/kg
ED50 (DU-145 [30]): 23 mg/kg
minimal effective dose (DU-145 [30]; read-out: MED): 30 mg/kg
ED50 (MV4-11 [31]): 3 mg/kg
minimal effective dose (MV4-11 [31]; read-out: MED): 1 mg/kg
